Our source for the IC50 values is patent US7589089B2, “Inhibitors for GlyT-1” (Hoffmann-La Roche Inc., priority 2006, dated 2009).

By IC50 is commonly meant the concentration at which inhibition is half-maximal. A high value points to weaker potency in that assay.

The target in the assay is T1, mGlyT-1b (Mus musculus, UniProt P28571).
T1 construct: host or cells: Flp-in-CHO
T1 sequence (P28571 1-651 isoform P28571-2): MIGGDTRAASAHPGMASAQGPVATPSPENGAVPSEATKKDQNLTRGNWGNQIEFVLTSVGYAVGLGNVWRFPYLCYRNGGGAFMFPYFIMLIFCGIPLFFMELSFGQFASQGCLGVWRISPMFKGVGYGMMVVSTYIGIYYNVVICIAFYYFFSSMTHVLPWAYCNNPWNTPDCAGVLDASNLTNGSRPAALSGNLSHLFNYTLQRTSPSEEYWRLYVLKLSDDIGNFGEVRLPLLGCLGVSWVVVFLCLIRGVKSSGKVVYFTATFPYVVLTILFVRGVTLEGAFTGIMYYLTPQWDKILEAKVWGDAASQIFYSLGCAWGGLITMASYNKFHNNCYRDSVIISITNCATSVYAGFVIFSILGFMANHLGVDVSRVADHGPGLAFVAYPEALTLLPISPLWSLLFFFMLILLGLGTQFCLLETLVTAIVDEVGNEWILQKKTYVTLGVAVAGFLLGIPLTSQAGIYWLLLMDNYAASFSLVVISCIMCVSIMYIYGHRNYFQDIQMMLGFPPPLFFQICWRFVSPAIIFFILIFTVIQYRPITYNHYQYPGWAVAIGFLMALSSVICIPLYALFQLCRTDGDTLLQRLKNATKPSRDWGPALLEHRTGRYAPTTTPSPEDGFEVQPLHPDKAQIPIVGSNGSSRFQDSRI
In words: Glycine Uptake Inhibition Assay (mGlyT-1b). It counts as cell-based. On the procedure:
DMEM complete medium: Nutrient mixture F-12 (Gibco Life-technologies), fetal bovine serum (FBS) 5%, (Gibco life technologies), Penicillin/Streptomycin 1% (Gibco life technologies), Hygromycin 0.6 mg/ml (Gibco life technologies), Glutamine 1 mM Gibco life technologies)
Uptake buffer (UB): 150 mM NaCl, 10 mM Hepes-Tris, pH 7.4, 1 mM CaCl2, 2.5 mM KCl, 2.5 mM MgSO4, 10 mM (+) D-glucose.
Flp-in™-CHO (Invitrogen Cat n° R758-07) cells stably transfected with mGlyT1b cDNA.
Glycine Uptake Inhibition Assay (mGlyT-1b)
On day 1 mammalian cells, (Flp-in™-CHO), transfected with mGlyT-1b cDNA, were plated at the density of 40,000 cells/well in complete F-12 medium, without hygromycin in 96-well culture plates. On day 2, the medium was aspirated and the cells were washed twice with uptake buffer (UB). The cells were then incubated for 20 min at 22° C. with either (i) no potential competitor, (ii) 10 mM non-radioactive glycine, (iii) a concentration of a potential inhibitor. A range of concentrations of the potential inhibitor was used to generate data for calculating the concentration of inhibitor resulting in 50% of the effect (e.g. IC50, the concentration of the competitor inhibiting glycine uptake of 50%). A solution was then immediately added containing [^3H]-glycine 60 nM (11-16 Ci/mmol) and 25 μM non-radioactive glycine. The plates were incubated with gentle shaking and the reaction was stopped by aspiration of the mixture and washing (three times) with ice-cold UB. The cells were lysed with scintillation liquid, shaken 3 hours and the radioactivity in the cells was counted using a scintillation counter.

`O=C(CN(Cc1cccc(F)c1F)C(=O)c1ccc(OC(F)(F)F)cc1)Nc1ccc(F)c(Cl)c1` [Example 83, N-[(3-Chloro-4-fluoro-phenylcarbamoyl)-methyl]-N-(2,3-difluoro-benzyl)-4-trifluoromethoxy-benzamide] gave an IC50 of 78 nM.

With `O=C(CN(Cc1c(F)cccc1F)C(=O)c1ccc(OC(F)(F)F)cc1)Nc1ccc(F)c(Cl)c1` [Example 71, N-[(3-Chloro-4-fluoro-phenylcarbamoyl)-methyl]-N-(2,6-difluoro-benzyl)-4-trifluoromethoxy-benzamide], the IC50 worked out at 107 nM.

On to `CN(C)c1ccc(C(=O)N(CC(=O)Nc2ccc(Cl)c(Cl)c2)c2ccccc2)cc1` [Example 116, N-[(3,4-Dichloro-phenylcarbamoyl)-methyl]-4-dimethylamino-N-phenyl-benzamide], for which the IC50 turned out to be 191 nM.

For the compound `CC(C)(C)CCN(CC(=O)Nc1cccc(Cl)c1)C(=O)c1ccc(Cl)cc1` [Example 96, 4-Chloro-N-[(3-chloro-phenylcarbamoyl)-methyl]-N-(3,3-dimethyl-butyl)-benzamide], it took 359 nM to reach half-maximal inhibition (IC50).

`O=C(CN(Cc1cccs1)C(=O)c1ccc(Cl)cc1)Nc1cccc(Cl)c1` [Example 17, 4-Chloro-N-[(3-chloro-phenylcarbamoyl)-methyl]-N-thiophen-2-ylmethyl-benzamide] gave an IC50 of 77 nM.

`O=C(CN(Cc1cc(F)cc(F)c1)C(=O)c1ccc(OC(F)(F)F)cc1)Nc1cccc(F)c1` [Example 65, N-(3,5-Difluoro-benzyl)-N-[(3-fluoro-phenylcarbamoyl)-methyl]-4-trifluoromethoxy-benzamide] came in with an IC50 of 278 nM.

`O=C(CN(Cc1ccccc1F)C(=O)c1ccc(Cl)cc1)Nc1cccc(Cl)c1` [Example 9, 4-Chloro-N-[(3-chloro-phenylcarbamoyl)-methyl]-N-(2-fluoro-benzyl)-benzamide] yielded an IC50 of 74 nM.

Compound `COc1ccc(C(=O)N(CC(=O)Nc2ccc(Cl)c(Cl)c2)c2ccccc2)cc1` [Example 41, N-[(3,4-Dichloro-phenylcarbamoyl)-methyl]-4-methoxy-N-phenyl-benzamide] gave an IC50 of 276 nM.

`O=C(CN(Cc1cccc(F)c1F)C(=O)c1ccc(Cl)cc1)Nc1ccc(F)c(Cl)c1` [Example 82, 4-Chloro-N-[(3-chloro-4-fluoro-phenylcarbamoyl)-methyl]-N-(2,3-difluoro-benzyl)-benzamide] came in with a half-maximal inhibitory concentration (IC50) of 108 nM.

Consider `O=C(CN(Cc1ccc(F)c(F)c1)C(=O)c1cc2ccccc2s1)Nc1cccc(F)c1` [Example 66, Benzo[b]thiophene-2-carboxylic acid (3,4-difluoro-benzyl)-[(3-fluoro-phenylcarbamoyl)-methyl]-amide], for which the IC50 is 167 nM.
